Test results taken from paper PMC7463931, “Structure-Antifouling Activity Relationship and Molecular Targets of Bio-Inspired(thio)xanthones” (Biomolecules, 2020).
Like-named read-outs stand apart in the source and are kept apart here.

Experiments:
[1] = test system: Mytilus galloprovincialis plantigrade larvae; assay: M. galloprovincialis larvae anti-settlement bioassay; format: in vivo; details: for EC50: dose-response, read-out: EC50 (concentration that inhibited 50% of larval settlement); for inhibition at 50 µM: initial screening bioassay at 50 µM, 15 h
Procedure: (§1) The 19 xanthone derivatives were screened for anti-settlement activity toward M. galloprovincialis plantigrade larvae. Samples of M. galloprovincialis juveniles were collected from mussel beds during low tides in the intertidal zone of Memória beach, Matosinhos, Portugal (41°13′59″ N; 8°43′28″ W). Mussel plantigrade larvae (0.5–2 mm) were sorted in a binocular magnifier (Olympus SZX2-ILLT, Tokyo, Japan) and kept in filtered seawater until bioassays preparation. […] Five competent larvae were included per well and four well replicates per condition. Stock solutions (50 mM) in DMSO were used to prepare test media in filtered seawater (0.1%). Negative and positive controls were used, namely DMSO (0.1%) and CuSO4 (5 μM) as an efficient antifouling agent. After exposure, the anti-settlement bioactivity was determined by the observation of efficiently attached plantigrade larvae considering the existence/absence of produced byssal threads for each test condition. Compounds producing more than 50% of settlement inhibition at 50 µM were selected for antifouling effectiveness (EC50) and toxicity (LC50 and therapeutic index) bioassays, according to previously validated experimental conditions.
(§2) Therapeutic ratios (LC50/EC50) were used to evaluate the effectiveness versus toxicity of bioactive compounds. For the differential proteome analysis, non-parametric Kruskall-Wallis (KW) and Mann Whitney (MW) tests were utilized to report protein abundance differences between treatments in MultiExperiment Viewer (MeV) version 4.9 (The Institute for Genomic Research (TIGR), La Jolla, CA, USA) at a confidence level of 95% [34]. The hierarchical clustering of proteins was made using Pearson correlation and average linkage method.

[2] = Toxicity (mortality, LC50) to mussel plantigrade larvae in the anti-settlement bioassay; format: in vivo, Mytilus galloprovincialis; details: Mytilus galloprovincialis, in vivo, other: immersion in test media in filtered seawater; mussel plantigrade larvae; read-out: LC50 (median lethal dose)
Procedure: as §1, §2

[3] = biological target: T1, Electrophorus electric AChE Type V-S (Electrophorus electricus, UniProt O42275); assay: In vitro determination of acetylcholinesterase (AChE) inhibition activity; format: biochemical; details: for AChE inhibition compared to control: 50 µM; for dose-response of AChE activity: Figure 4b
T1 construct: purchased SIGMA C2888
Procedure: AChE inhibition was evaluated as a neurotransmission biomarker for the 19 compounds using Electrophorus electric AChE Type V-S (SIGMA C2888, E.C. 3.1.1.7), according to Ellman et al. (1961) and modified by Almeida et al. (2015). Briefly, 250 μL of the reaction solution containing 30 mL of phosphate buffer, 1mL of the reagent dithiobisnitrobenzoate (DTNB) at 10 mM (acid dithiobisnitrobenzoate and sodium hydrogen carbonate in phosphate buffer), and 200 μL of […] 0.075 M was added to 50 μL of pure AChE (0.25 U.mL^−1) and each test compound at final concentration of 30 μg mL^−1 in quadruplicate. AChE activity was followed at 412 nm during 5 min at 25 °C. Negative and positive controls were included, namely ultra-pure water and eserine (20 mM), respectively, and a blank containing 50 μL of phosphate buffer.

Artemia salina nauplii = assay: Brine shrimp (Artemia salina) lethality test; format: in vivo; details: 25 and 50 µM, 48 h of exposure
Procedure: Ecotoxicity to non-target species was assessed using the brine shrimp (Artemia salina) lethality test standard protocol. Artemia cysts were cultivated and newly hatched nauplii I were used for the exposure to the most promising antifouling compounds at 50 and 25 µM. The bioassay was performed in 96-well microplates with eight replicates per condition and 15–20 nauplii per well. Positive (K2Cr2O7 at 13.6 µM) and negative (DMSO) controls were included. After 48 h of exposure, the percentage of nauplii mortality was determined.

[4] = test system: Agaricus bisporus tyrosinase; assay: In vitro determination of tyrosinase inhibition activity; format: biochemical
Procedure: Tyrosinase inhibition assays were conducted using Agaricus bisporus tyrosinase (EC 1.14.18.1) according to Adhikari et al. with appropriate adaptations. The enzymatic reaction follows the catalytic conversion of L-Dopa to dopaquinone and the formation of dopachrome by measuring the absorbance at 475 nm. Briefly, 50 µL of tyrosinase (25 U.mL^−1) in 50 mM phosphate buffer pH 6.5, adding the defined concentration of compounds in DMSO. The enzymatic activity was initiated by L-dopa (25 mM). Kojic acid was used as positive control and DMSO as negative control.

[5] = test system: Mytilus galloprovincialis plantigrade larvae; assay: Toxicity (mortality, LC50) to mussel plantigrade larvae in the anti-settlement bioassay; format: in vivo
Procedure: as §1, §2

[6] = test system: Mytilus galloprovincialis plantigrade larvae; set-up: method as in PMID 31669574; details: at 108 µM, same bioassay conditions; cited from earlier work

T1 sequence (O42275 24-633): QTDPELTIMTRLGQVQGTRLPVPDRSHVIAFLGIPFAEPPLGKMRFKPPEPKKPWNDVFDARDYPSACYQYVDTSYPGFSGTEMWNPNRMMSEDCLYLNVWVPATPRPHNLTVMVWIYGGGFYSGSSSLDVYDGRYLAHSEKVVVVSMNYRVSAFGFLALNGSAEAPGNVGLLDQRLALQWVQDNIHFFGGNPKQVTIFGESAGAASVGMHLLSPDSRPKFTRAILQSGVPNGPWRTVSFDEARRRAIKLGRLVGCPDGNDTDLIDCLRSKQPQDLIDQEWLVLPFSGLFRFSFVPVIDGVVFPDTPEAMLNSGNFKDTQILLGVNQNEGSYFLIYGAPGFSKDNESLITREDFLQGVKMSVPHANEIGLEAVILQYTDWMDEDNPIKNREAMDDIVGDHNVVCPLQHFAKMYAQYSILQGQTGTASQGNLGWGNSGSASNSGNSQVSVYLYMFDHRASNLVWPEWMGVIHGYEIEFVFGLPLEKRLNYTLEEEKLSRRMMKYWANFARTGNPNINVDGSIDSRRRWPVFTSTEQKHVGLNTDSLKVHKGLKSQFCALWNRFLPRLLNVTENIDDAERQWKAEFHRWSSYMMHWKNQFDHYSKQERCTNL

Row | SMILES | EC50 ([1]; Probit regression, 95% CI) [µM] | EC50 [1] [µg/mL] | inhibition at 50 µM [1] [%] | LC50 at 15 h [2] [µM] | AChE inhibition compared to control [3] | dose-response of AChE activity [3] | Artemia salina mortality (Artemia salina nauplii) [%] | induction of tyrosinase activity ([4]; 25 μM) [%] | induction of tyrosinase activity ([4]; 200 μM) [%] | inhibition of tyrosinase activity ([4]; 50 µM) [%] | mortality of mussel plantigrade larvae ([5]; at 100 µM) [%] | mortality of mussel plantigrade larvae ([5]; at 500 µM) [%] | mortality of mussel plantigrade larvae [6] [%]
1 | O=c1c2ccccc2oc2c(O)cccc12 [Compound 4, 4-hydroxy-] | 21.5 | 4.55 | 70 ± 12.9 | > 500 | showed AChE inhibition | concentration-dependent modulation of AChE activity | > 10 |  |  |  |  |  | 
2 | O=c1c2ccccc2oc2ccc(O)c(O)c12 [Compound 5, 1,2-dihydroxy-] | 15.5 | 3.52 | 70 ± 12.9 | > 500 | showed AChE inhibition | concentration-dependent modulation of AChE activity | > 10 |  |  |  |  |  | 
3 | O=c1c2ccccc2oc2c(O)c(O)ccc12 [Compound 7, 3,4-dihydroxy-] | 11.5 | 2.63 | 65 ± 17.1 | > 500 |  |  | < 10 | 11.7 | 62.5 |  |  |  | 
4 | O=c1c2ccc(O)cc2oc2cc(O)ccc12 [Compound 8, 3,6-dihydroxy-] |  |  |  |  |  |  |  |  |  | 34 |  |  | 
5 | CC1(C)CCc2cc3c(=O)c4ccccc4oc3c(O)c2O1 [Compound 10, 4-dihydro-12-hydroxy-2,2-dimethyl-2H,6H-pyrano [3,2-b]xanthone] | 4.6 | 1.36 | 75 ± 9.6 | > 500 |  |  | < 10 |  |  |  | 15 |  | 
6 | CCCOc1ccc(NCCc2ccc3c(c2)OCO3)c2c(=O)c3ccccc3sc12 [Compound 15, 1-[11]-4-propoxy-9H-thioxanthen-9-one] | 28.6 | 12.4 | 71.2 ± 10.9 | > 500 |  |  | > 10 |  |  |  |  |  | 
7 | CCCOc1ccc(N2CCCCC2)c2c(=O)c3ccccc3sc12 [Compound 17, 1-(piperidin-1-yl)-4-propoxy-9H-thioxanthen-9-one] | 3.53 | 1.25 | 71.7 ± 5 | > 500 |  |  | > 10 |  |  |  |  | 17 | 
8 | N#Cc1c(-c2ccc(Cl)cc2)[nH]c(C(F)(F)F)c1Br [ECONEA] |  |  |  |  |  |  |  |  |  |  |  |  | 50
